Among the data in the SangsterLogP compilation are logP values, retold here.

Broadly, the logP is the decadic logarithm of the partition coefficient of the neutral form, usually between octanol and water.

The structures appear in SMILES notation.

The data set in a line: method code SF, from PMID: 3778562.
In turn, `COc1cc(OC)c2c(c1)OC(c1ccc(OC)c(OC)c1)C(OC)C2` (configuration not stated) came in with a lipophilicity (logP) of 3.68.

Molecule `O=c1cc(-c2ccc(O)cc2)oc2cc(O)cc(O)c12` yielded a log partition coefficient (logP) of 3.02.

`O=c1cc(-c2ccc(O)c(O)c2)oc2cccc(O)c12`: the logP turned out to be 3.31.

Regarding `Oc1cc(O)c2c(c1)OC(c1ccc(O)c(O)c1)C(O)C2O` (configuration not stated), the logP amounted to 0.95.

As for `O=c1c(O)c(-c2ccc(O)cc2)oc2cc(O)ccc12`, the logP stood at 3.02.

`O=c1c(O)c(-c2cccc(O)c2)oc2cc(O)ccc12` came in with a logP of 2.51.

Take `O=C(Cc1ccccc1)O[C@H]1Cc2c(O)cc(O)cc2O[C@@H]1c1ccc(O)c(O)c1`: the logP was found to be 3.09.

On to `CCCCCCCCCCCCCCCCCCO[C@H]1Cc2c(O)cc(O)cc2O[C@@H]1c1ccc(O)c(O)c1`, for which the logP is 9.91.

As for `O=C(Nc1ccccc1)OC1Cc2c(O)cc(O)cc2OC1c1ccc(O)c(O)c1` (configuration not stated), the logP was 3.05.

The molecule `O=C(O[C@H]1Cc2c(O)cc(O)cc2O[C@@H]1c1ccc(O)c(O)c1)c1ccc(F)cc1` had a logP of 3.64.

In turn, `O=C1C[C@@H](c2cccc(O)c2)Oc2cc(O)cc(O)c21` displayed a logP of 2.51.

The molecule `O=C(OC1Cc2c(O)cc(O)cc2OC1c1ccc(O)c(O)c1)c1ccc(O)c(O)c1` (configuration not stated) registered a logP of 2.45.

As to `COc1cc(OC)c2c(c1)O[C@H](c1ccc(OC)c(OC)c1)[C@@H](O)C2`, the logP was 3.1.

Take `O=c1c(O)c(-c2ccc(O)c(O)c2)oc2cc(O)ccc12`: the logP came out at 2.53.

With `Cc1cc(C)c2c(c1)O[C@H](c1ccc(C)c(C)c1)[C@@H](O)C2`, the lipophilicity (logP) was 3.1.

The molecule `CCCO[C@H]1Cc2c(O)cc(O)cc2O[C@@H]1c1ccc(O)c(O)c1` gave a logP of 2.12.

Turning to `CCCCCCCCCCCCCCCC(=O)O[C@H]1Cc2c(O)cc(O)cc2O[C@@H]1c1ccc(O)c(O)c1`, the logP was 8.7.

Take `O=C1C[C@@H](c2ccc(O)c(O)c2)Oc2cc(O)cc(O)c21`: the logP was 2.02.

The molecule `O=C1C[C@@H](c2ccc(O)c(O)c2)Oc2cc(O)ccc21` had a logP of 1.94.

The molecule `Oc1cc(O)c2c(c1)O[C@@H](c1ccc(O)c(O)c1)C(OCO[C@@H]1Cc3c(O)cc(O)cc3O[C@H]1c1ccc(O)c(O)c1)C2` (some centres not stated) returned a logP of 2.15.

`CCCCCCCCCCCCO[C@H]1Cc2c(O)cc(O)cc2O[C@@H]1c1ccc(O)c(O)c1` returned a logP of 6.79.

Take `COc1ccc(-c2cc(=O)c3c(O)cc(O[C@@H]4O[C@H](CO[C@@H]5O[C@@H](C)[C@H](O)[C@@H](O)[C@H]5O)[C@@H](O)[C@H](O)[C@H]4O)cc3o2)cc1O`: the lipophilicity (logP) turned out to be 0.14.

`CCCCO[C@H]1Cc2c(O)cc(O)cc2O[C@@H]1c1ccc(O)c(O)c1` returned a logP of 2.64.

For `O=c1c(O)c(-c2ccc(O)cc2)oc2cc(O)cc(O)c12`, the lipophilicity (logP) worked out at 3.39.

`NCCCOC1Cc2c(O)cc(O)cc2OC1c1ccc(O)c(O)c1` (configuration not stated) had a logP of 0.52.

The molecule `CCCCCCCCCCCCCCCCO[C@H]1Cc2c(O)cc(O)cc2O[C@@H]1c1ccc(O)c(O)c1` showed a logP of 8.87.

The molecule `COc1ccc(-c2cc(=O)c3c(O)cc(O)cc3o2)cc1O` displayed a logP of 3.1.

Regarding `COc1ccc(-c2oc3cc(O)cc(O)c3c(=O)c2O)cc1`, the logP turned out to be 3.97.

`O=C1C[C@@H](c2ccc(O)cc2)Oc2cc(O[C@H]3O[C@@H](CO)[C@H](O)[C@@H](O)[C@@H]3O)cc(O)c21` came in with a logP of -0.44.

For the molecule `O=C1C[C@@H](c2ccc(O)c(O)c2)Oc2cccc(O)c21`, the logP worked out at 2.81.

As for `CC(=O)Oc1ccccc1C(=O)OC1Cc2c(O)cc(O)cc2OC1c1ccc(O)c(O)c1` (configuration not stated), the lipophilicity (logP) came to 2.87.

In the case of `COc1ccc(-c2oc3ccccc3c(=O)c2O)cc1OC`, the logP came to 4.17.

In the case of `COc1ccc([C@@H]2CC(=O)c3c(O)cc(O)cc3O2)cc1O`, the log partition coefficient (logP) amounted to 2.6.

With `CCCCCCCCCC(=O)O[C@H]1Cc2c(O)cc(O)cc2O[C@@H]1c1ccc(O)c(O)c1`, the logP stood at 5.58.

On to `O=c1cc(-c2ccc(O)c(O)c2)oc2cc(O)ccc12`, for which the logP came to 1.94.

For the molecule `CCCC(=O)O[C@H]1Cc2c(O)cc(O)cc2O[C@@H]1c1ccc(O)c(O)c1`, the logP is 2.47.

As for `O=C(O)CCC(=O)O[C@H]1Cc2c(O)cc(O)cc2O[C@@H]1c1ccc(O)c(O)c1`, the logP came to 1.41.

As for `O=C1CC(c2ccc(O)cc2)Oc2cc(O)cc(O)c21` (stereo in doubt), the lipophilicity (logP) was determined as 2.52.

In turn, `O=c1cc(-c2ccccc2)oc2cc(O)cc(O)c12` came in with a logP of 3.52.

`N#CCCO[C@H]1Cc2c(O)cc(O)cc2O[C@@H]1c1ccc(O)c(O)c1` showed a logP of 0.96.

As for `C[C@@H]1O[C@@H](O[C@H]2[C@H](Oc3cc(O)c4c(c3)O[C@H](c3ccc(O)cc3)CC4=O)O[C@H](CO)[C@@H](O)[C@@H]2O)[C@H](O)[C@H](O)[C@H]1O`, the logP was -0.44.

Turning to `CO[C@H]1Cc2c(O)cc(O)cc2O[C@@H]1c1ccc(O)c(O)c1`, the logP came to 1.

Regarding `C[C@@H]1O[C@@H](Oc2c(-c3ccc(O)c(O)c3)oc3cc(O)cc(O)c3c2=O)[C@H](O)[C@H](O)[C@H]1O`, the logP worked out at 1.78.

`O=C(O[C@H]1Cc2c(O)cc(O)cc2O[C@@H]1c1ccc(O)c(O)c1)c1ccccc1` returned a lipophilicity (logP) of 3.44.

Molecule `Oc1cc(O)c2c(c1)OC(c1ccc(O)c(O)c1)C(OCCCc1ccccc1)C2` (configuration not stated) showed a logP of 3.78.

`O=c1c(O)c(-c2ccc(O)cc2O)oc2cc(O)cc(O)c12` returned a logP of 2.61.

`CCCCCCCO[C@H]1Cc2c(O)cc(O)cc2O[C@@H]1c1ccc(O)c(O)c1`: the logP was 4.2.
